Data reported in article PMC6628712 (Journal of enzyme inhibition and medicinal chemistry, 2016).
Where two headings read alike, the source gives them in different places.

What was measured:
CYP26A1 [1] = target: T1, CYP26A1 (Homo sapiens, UniProt O43174); test: Inhibition of CYP26A1-catalyzed tazarotenic acid sulfoxide formation; format: biochemical
T1 sequence (O43174 1-497): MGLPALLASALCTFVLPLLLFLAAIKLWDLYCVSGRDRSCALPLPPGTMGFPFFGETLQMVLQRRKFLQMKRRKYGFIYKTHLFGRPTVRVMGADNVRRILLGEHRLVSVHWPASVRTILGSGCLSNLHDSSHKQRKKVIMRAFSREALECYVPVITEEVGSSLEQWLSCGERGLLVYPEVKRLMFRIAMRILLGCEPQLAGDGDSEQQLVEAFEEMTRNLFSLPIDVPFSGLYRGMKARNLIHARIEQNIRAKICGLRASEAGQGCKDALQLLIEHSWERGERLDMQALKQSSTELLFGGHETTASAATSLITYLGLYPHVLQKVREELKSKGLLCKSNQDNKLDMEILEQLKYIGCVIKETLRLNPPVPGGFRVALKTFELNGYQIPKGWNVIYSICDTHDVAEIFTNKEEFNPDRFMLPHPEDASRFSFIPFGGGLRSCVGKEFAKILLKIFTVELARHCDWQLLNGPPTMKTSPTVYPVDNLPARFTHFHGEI

CYP26B1 = target: T2, CYP26B1 (Homo sapiens, UniProt Q9NR63); test: Inhibition of CYP26B1-catalyzed tazarotenic acid sulfoxide formation; format: biochemical; conditions: recombinant CYP26B1, probe tazarotenic acid sulfoxide formation, ± standard error
T2 sequence (Q9NR63 1-512): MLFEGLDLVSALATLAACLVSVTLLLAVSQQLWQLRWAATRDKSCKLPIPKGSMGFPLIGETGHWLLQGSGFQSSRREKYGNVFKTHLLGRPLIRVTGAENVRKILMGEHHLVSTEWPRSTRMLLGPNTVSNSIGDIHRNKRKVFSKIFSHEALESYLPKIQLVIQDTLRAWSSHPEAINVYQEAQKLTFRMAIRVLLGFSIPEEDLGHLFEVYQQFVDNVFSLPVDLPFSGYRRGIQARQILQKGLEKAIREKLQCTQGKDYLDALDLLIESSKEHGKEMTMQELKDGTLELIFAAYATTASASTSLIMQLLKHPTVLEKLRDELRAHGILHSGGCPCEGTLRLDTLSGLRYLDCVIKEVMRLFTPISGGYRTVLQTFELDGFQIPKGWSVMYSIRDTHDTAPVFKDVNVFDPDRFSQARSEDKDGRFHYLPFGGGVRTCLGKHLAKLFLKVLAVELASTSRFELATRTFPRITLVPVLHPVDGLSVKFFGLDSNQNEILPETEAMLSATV

[2] = human, in vivo
CYP2C8 = target: T3, CYP2C8 (Homo sapiens, UniProt P10632); conditions: read-out: CYP2C8 IC50, cited from earlier work
T3 sequence (P10632 1-490): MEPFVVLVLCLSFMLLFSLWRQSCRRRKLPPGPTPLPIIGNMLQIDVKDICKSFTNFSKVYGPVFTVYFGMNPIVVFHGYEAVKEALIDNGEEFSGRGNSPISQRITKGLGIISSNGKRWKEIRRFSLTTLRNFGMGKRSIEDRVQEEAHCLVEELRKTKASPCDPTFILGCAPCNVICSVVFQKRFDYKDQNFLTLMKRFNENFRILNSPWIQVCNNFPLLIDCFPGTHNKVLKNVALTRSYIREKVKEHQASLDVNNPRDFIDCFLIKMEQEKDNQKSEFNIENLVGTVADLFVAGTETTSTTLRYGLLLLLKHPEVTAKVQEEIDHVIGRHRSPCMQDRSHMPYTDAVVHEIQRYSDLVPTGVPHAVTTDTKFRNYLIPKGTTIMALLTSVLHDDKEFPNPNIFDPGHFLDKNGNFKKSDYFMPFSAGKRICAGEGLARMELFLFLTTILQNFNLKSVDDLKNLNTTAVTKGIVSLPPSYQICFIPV

[3] = total plasma, clinically relevant dose as in column Oral Dose; ref [64]–[73]; cited from earlier work
[4] = unbound fraction in plasma; ref [64]–[73]; cited from earlier work
[5] = patient with acute promyelocytic leukemia, co-administration of oral fluconazole; ref [102]; cited from earlier work
CYP26A1 [6] = conditions: in vitro; ref [97]; cited from earlier work
CYP26A1 [7] = target: T1, CYP26A1; test: Spectral binding determination, CYP26A1; conditions: UV-difference spectra
[8] = read-out: CYP26A1 IC50, tazarotenic acid, recombinant CYP26A1, probe tazarotenic acid sulfoxide formation, ± standard error
[9] = read-out: CYP26B1 IC50, tazarotenic acid
[10] = substrate amodiaquine, ref [51]
[11] = substrate montelukast (HLM), ref [44]
[12] = CYP26A1 IC50, tazarotenic acid, recombinant CYP26A1, probe tazarotenic acid sulfoxide formation, ± standard error

| Compound | IC50 (CYP26A1 [1]; [8]) | IC50 (CYP26B1; [9]) | Cmax,u [2] | IC50 (CYP2C8; [10]) | Cmax [3] | fu,plasma [4] | IC50 (CYP26B1; CYP26B1 IC50, tazarotenic acid) | IC50 (CYP26A1 [1]; [12]) | also measured |
| --- | --- | --- | --- | --- | --- | --- | --- | --- | --- |
| C#C[C@]1(O)CC[C@H]2[C@@H]3CCc4cc(O)ccc4[C@H]3CC[C@@]21C [17α-Ethynylestradiol] | 2.24 ± 1.33 µM | 6.73 ± 3.77 µM | 0.00085 nM | 6.54 ± 1.22 µM | 0.5 nM | 0.002 | – | – | – |
| CC1(C)CCC(C)(C)c2cc(NC(=O)c3ccc(C(=O)O)cc3)ccc21 [AM80] | 2.89 ± 0.24 µM | 9.21 ± 0.83 µM | – | – | – | – | – | – | – |
| CCc1oc2ccccc2c1C(=O)c1cc(Br)c(O)c(Br)c1 [Benzbromarone] | – | – | 92.4 nM | – | 9240 nM | 0.010 | 7.57 ± 4.93 µM | – | IC50 (CYP26A1 [1]): 0.63 ± 0.06 µM; IC50 (CYP2C8; [11]): 0.38 µM |
| C=C(c1ccc(C(=O)O)cc1)c1cc2c(cc1C)C(C)(C)CCC2(C)C [Bexarotene] | – | – | – | – | – | – | 1.6 ± 0.27 µM | – | IC50 (CYP26A1 [1]): 1.31 ± 0.48 µM |
| O=C(O)c1ccc2cc(-c3ccc(O)c(C45CC6CC(CC(C6)C4)C5)c3)ccc2c1 [CD437] | 0.01 ± 0.01 µM | 0.14 ± 0.05 µM | – | – | – | – | – | – | – |
| CCOc1nc2cccc(C(=O)O)c2n1Cc1ccc(-c2ccccc2-c2nnn[nH]2)cc1 [Candesartan] | – | – | 0.38 nM | 36.2 ± 1.7 µM | 270 nM | – | 58.3 µM | 25.6 ± 25.8 µM | – |
| CC1(C)CCC(C)(C)c2cc(C#Cc3ccc(C(=O)O)cc3)ccc21 [EC23] | 1.6 ± 0.74 µM | 3.45 ± 2.8 µM | – | – | – | – | – | – | – |
| OC(Cn1cncn1)(Cn1cncn1)c1ccc(F)cc1F [Fluconazole] | – | – | 30794 nM | – | 34600 nM | – | 19.8 ± 3.21 µM | 0.7 ± 0.19 µM | IC50 (CYP2C8; substrate amodiaquine, ref [50]): 48.9 µM; Increase of AUC of orally administered retinoic acid [5]: 4 fold; Increase of Cmax of orally administered retinoic acid [5]: 6 fold; Inhibition of CYP26A1-catalyzed 4-hydroxyretinoic acid formation (CYP26A1 [6]): not be inhibitors |
| CCC(C)n1ncn(-c2ccc(N3CCN(c4ccc(OCC5COC(Cn6cncn6)(c6ccc(Cl)cc6Cl)O5)cc4)CC3)cc2)c1=O (centres unmarked) [Itraconazole] | – | – | 1.80 nM | – | 919 nM | – | 0.16 ± 0.02 µM | 0.55 ± 0.09 µM | IC50 (CYP2C8; substrate paclitaxel, ref Unpublished Data): 2.16 ± 0.41 µM |
| Clc1cccc(C(c2ccc3[nH]cnc3c2)n2ccnc2)c1 (centres unmarked) [Liarazole] | – | 0.01 ± 0.01 µM | – | – | – | – | – | – | – |
| CC1(C)CCC(C)(C)c2cc(C3(c4ccc5cc(C(=O)O)ccc5c4)SCCS3)ccc21 [MM11253] | 0.02 ± 0.01 µM | 1.25 ± 0.44 µM | – | – | – | – | – | – | – |
| C[C@@H]1C[C@H]2[C@@H]3CCC4=CC(=O)C=C[C@]4(C)[C@@]3(Cl)[C@@H](O)C[C@]2(C)[C@@]1(O)C(=O)CCl [Mometasone] | 0.9 ± 0.08 µM | 6.81 ± 1.19 µM | 0.0005 nM | 0.813 ± 0.112 µM | 0.05 nM | 0.010 | – | – | – |
| CC(C)(O)c1ccccc1CC[C@@H](SCC1(CC(=O)O)CC1)c1cccc(/C=C/c2ccc3ccc(Cl)cc3n2)c1 [Montelukast] | – | – | 8.90 nM | – | 925 nM | – | 0.61 ± 0.09 µM | 0.12 ± 0.02 µM | – |
| CCc1ccc(CCOc2ccc(CC3SC(=O)NC3=O)cc2)nc1 (centres unmarked) [Pioglitazone] | – | – | 38.0 nM | 11.7 ± 4 µM | 4490 nM | – | 8.48 ± 1.19 µM | 0.93 ± 0.26 µM | – |
| O=c1c(O)c(-c2ccc(O)c(O)c2)oc2cc(O)cc(O)c12 [Quercetin] | – | – | 0.45 nM | – | 50.9 nM | 0.009 | 76.2 ± 148 µM | 1.92 ± 0.39 µM | Inhibition of CYP26A1-catalyzed 4-hydroxyretinoic acid formation (CYP26A1 [6]): not be inhibitors |
| O=C(c1ccc(OCCN2CCCCC2)cc1)c1c(-c2ccc(O)cc2)sc2cc(O)ccc12 [Raloxifene] | – | – | 0.50 nM | 2.15 ± 0.9 µM | 1.05 nM | 0.050 | 3.28 ± 1.15 µM | 1.78 ± 0.77 µM | – |
| CCOc1cc(CC(=O)N[C@@H](CC(C)C)c2ccccc2N2CCCCC2)ccc1C(=O)O [Repaglinide] | – | – | 2.60 nM | – | 104 nM | 0.026 | 0.61 ± 0.25 µM | 7.73 ± 2.69 µM | IC50 (CYP2C8; [11]): 11.1 µM |
| CC(C)c1nc(CN(C)C(=O)N[C@H](C(=O)N[C@@H](Cc2ccccc2)C[C@H](O)[C@H](Cc2ccccc2)NC(=O)OCc2cncs2)C(C)C)cs1 [Ritonavir] | – | – | 150 nM | – | 15300 nM | – | – | – | – |
| CN(CCOc1ccc(CC2SC(=O)NC2=O)cc1)c1ccccn1 (centres unmarked) [Rosiglitazone] | – | – | 3.40 nM | 10.8 ± 3.1 µM | 1670 nM | 0.002 | 8.47 ± 6.64 µM | 11.9 ± 1.02 µM | – |
| CC1(C)CCC(C)(C)c2cc(C3(c4ccc(C(=O)O)cc4)OCCO3)ccc21 [SR11237] | 0.81 ± 0.34 µM | 6.86 ± 0.46 µM | – | – | – | – | – | – | – |
| CCC(CC)C(c1ccc(Nc2nc3ccccc3s2)cc1)n1cncn1 (centres unmarked) [Talarazole] | 0.02 ± 0.01 µM | 0.001 ± 0.001 µM | – | – | – | – | – | – | – |
| CC/C(=C(\c1ccccc1)c1ccc(OCCN(C)C)cc1)c1ccccc1 [Tamoxifen] | – | – | 6.40 nM | 3.34 ± 1.55 µM | 323 nM | 0.020 | 14 ± 1.11 µM | 21.4 ± 20.3 µM | Inhibition of CYP26A1-catalyzed 4-hydroxyretinoic acid formation (CYP26A1 [6]): not be inhibitors |
| COc1cc(C(=O)NS(=O)(=O)c2ccccc2C)ccc1Cc1cn(C)c2ccc(NC(=O)OC3CCCC3)cc12 [Zafirlukast] | – | – | 3.00 nM | 0.644 ± 0.273 µM | 1120 nM | 0.010 | 0.71 ± 0.23 µM | 0.06 ± 0.02 µM | Selectivity for CYP26A1 (versus CYP26B1) (CYP26A1 [1]; ratio of IC50 values, tazarotenic acid probe): 11.8 fold; Binding mechanism, CYP26A1 (CYP26A1 [7]): No binding spectra could be obtained |
